Earlier results, collected in US20140256765A1, “TRANSMUCOSAL DRUG DELIVERY SYSTEM” (priority 2013, published 2014).

Key:
[1] = at a pH of 6.8
[2] = in vivo

CN1CCCC1c1cccnc1 (centres unmarked) [nicotine]
nicotine in the free base form [1]: about 10% | time to peak of plasma nicotine levels [2]: about 10 minutes
